According to patent publication US8084470B2, “Substituted nicotinamide compounds and uses thereof” (Gruenenthal GmbH, priority 2007, dated 2011):

Biological target: hKCNQ2/3 (Homo sapiens, UniProt O43525+O43526)
Assay: Fluorescence assay using a voltage sensitive dye
Format: cell-based
Parameters: expressed in transfected cells; host or cells: CHO-K1
Protocol: Biological Data Fluorescence Assay Using a Voltage Sensitive Dye
Human CHO-K1 cells expressing KCNQ2/3 channels are cultivated adherently at 37° C., 5% CO2 and 95% humidity in cell culture bottles (e.g. 80 cm^2 TC flasks, Nunc) with DMEM-high glucose (Sigma Aldrich, D7777) including 10% FCS (PAN Biotech, e.g. 3302-P270521) or alternatively with MEM Alpha Medium (1×, liquid, Invitrogen, #22571), 10% fetal calf serum (FCS) (Invitrogen, #10270-106, heat-inactivated) and the necessary selection antibiotics.
Before being distributed for the measurements, the cells are washed with a 1×DPBS buffer without Ca^2+/Mg^2+ (e.g. Invitrogen, #14190-094) and detached from the bottom of the culture vessel by means of Accutase (PAA Laboratories, #L11-007) (incubation with Accutase for 15 min at 37° C.). The cell count then present is determined using a CASY™ cell counter (TCC model, Schärfe System) in order subsequently to apply, according to density optimization for the individual cell line, 20,000-30,000 cells/well/100 μl of the described nutrient medium to 96-well measuring plates of the Corning™ CellBIND™ type (Flat Clear Bottom Black Polystyrene Microplates, #3340). Incubation is then carried out for one hour at room temperature, without gassing or adjusting the humidity, followed by incubation for 24 hours at 37° C., 5% CO2 and 95% humidity.
The voltage-sensitive fluorescent dye from the Membrane Potential Assay Kit (Red™ Bulk format part R8123 for FLIPR, MDS Analytical Technologies™) is prepared by dissolving the contents of a vessel Membrane Potential Assay Kit Red Component A in 200 ml of extracellular buffer (ES buffer, 120 mM NaCl, 1 mM KCl, 10 mM HEPES, 2 mM CaCl2, 2 mM MgCl2, 10 mM glucose; pH 7.4). After removal of the nutrient medium, the cells are washed with 200 μl of ES buffer, then covered with a layer of 100 μl of the dye solution prepared above and incubated for 45 min at room temperature with the exclusion of light.
The fluorescence measurements are carried out with a BMG Labtech FLUOstar™ or BMG Labtech NOVOstar™ or BMG Labtech POLARstar™ instrument (525 nm excitation, 560 nm emission, Bottom Read mode). After incubation of the dye, 50 μl of the test substances in the desired concentrations, or 50 μl of ES buffer for control purposes, are introduced into separate cavities of the measuring plate and incubated for 30 min at room temperature while being shielded from light. The fluorescence intensity of the dye is then measured for 5 min and the fluorescence value F1 of each well is thus determined at a given, constant time. 15 μL of a 100 mM KCl solution ([…]) are then added to each well. The change in fluorescence is subsequently measured until all the relevant measured values have been obtained (mainly 5-30 min). At a given time after KCl application, a fluorescence value F2 is determined, in this case at the time of the fluorescence peak.
For calculation, the fluorescence intensity F2 is compared with the fluorescence intensity F1, and the agonistic activity of the target compound on the potassium channel is determined therefrom. F2 and F1 are calculated as follows:
[formula] In order to determine whether a substance has an agonistic activity,
[formula] for example, can be compared with
[formula] of control cells.
[formula] is determined by adding to the reaction batch only the buffer solution instead of the substance to be tested, determining the value F1K of the fluorescence intensity, adding the potassium ions as described above and measuring a value F2K of the fluorescence intensity. Then F2K and F1K are calculated as follows:
[formula] A substance has an agonistic activity on the potassium channel when
[formula] is greater than
[formula] Independently of the comparison of
[formula] it is also possible to conclude that a target compound has agonistic activity if an increase in
[formula] is to be observed as the dosage of the target compound increases. […]

| Structure (SMILES) | EC50 [µM] |
| --- | --- |
| Cc1ccc(CNC(=O)c2cccnc2SCCS(=O)(=O)c2ccccc2)cc1 [Example 5, N-(4-methylbenzyl)-2-(2-(phenylsulfonyl)ethylthio)-nicotinamide] | 1.86 |
| O=C(NCc1cc(F)cc(F)c1)c1cccnc1SCCS(=O)(=O)c1ccccc1 [Example 8, N-(3,5-difluorobenzyl)-2-(2-(phenylsulfonyl)ethylthio)nicotinamide] | 1.28 |
| O=C(NCc1ccccc1F)c1cccnc1SCCS(=O)(=O)c1ccccc1 [Example 11, N-(2-fluorobenzyl)-2-(2-(phenylsulfonyl)ethylthio)nicotinamide] | 1.17 |
| O=C(NCc1ccc(F)c(F)c1)c1cccnc1SCCS(=O)(=O)c1ccccc1 [Example 12, N-(3,4-difluorobenzyl)-2-(2-(phenylsulfonyl)ethylthio)nicotinamide] | 1.8 |
| CN(Cc1cccc(Br)c1)C(=O)c1cccnc1SCCS(=O)(=O)c1ccccc1 [Example 13, N-(3-bromobenzyl)-N-methyl-2-(2-(phenylsulfonyl)ethylthio)nicotinamide] | 1.4 |
| O=C(NCc1cccc(F)c1)c1cccnc1SCCS(=O)(=O)c1ccccc1 [Example 15, N-(3-fluorobenzyl)-2-(2-(phenylsulfonyl)ethylthio)nicotinamide] | 2.48 |
| COc1ccc(CNC(=O)c2cccnc2SCCS(=O)(=O)c2ccccc2)cc1 [Example 17, N-(4-methoxybenzyl)-2-(2-(phenylsulfonyl)ethylthio)nicotinamide] | 6.52 |
| O=C(NCc1ccc(Cl)c(Cl)c1)c1cccnc1SCCS(=O)(=O)c1ccccc1 [Example 19, N-(3,4-dichlorobenzyl)-2-(2-(phenylsulfonyl)ethylthio)nicotinamide] | 1.27 |
| O=C(NCc1ccc(F)cc1)c1cccnc1SCCS(=O)(=O)c1ccccc1 [Example 20, N-(4-fluorobenzyl)-2-(2-(phenylsulfonyl)ethylthio)nicotinamide] | 1.28 |
| O=C(NCc1cccc(Cl)c1)c1cccnc1SCCS(=O)(=O)c1ccccc1 [Example 25, N-(3-chlorobenzyl)-2-(2-(phenylsulfonyl)ethylthio)nicotinamide] | 1.28 |
| Cc1ccc(S(=O)(=O)CCSc2ncccc2C(=O)NCc2cccs2)cc1 [Example 36, N-(thiophen-2-ylmethyl)-2-(2-tosylethylthio)nicotinamide] | 4.11 |
| Cc1ccc(S(=O)(=O)CCSc2ncccc2C(=O)NCc2ccco2)cc1 [Example 39, N-(furan-2-ylmethyl)-2-(2-tosylethylthio)nicotinamide] | 6.09 |
| Cc1ccc(S(=O)(=O)CCSc2ncccc2C(=O)NCc2cc(F)cc(F)c2)cc1 [Example 41, N-(3,5-difluorobenzyl)-2-(2-tosylethylthio)nicotinamide] | 2.39 |
| Cc1ccc(S(=O)(=O)CCSc2ncccc2C(=O)NCc2ccccc2F)cc1 [Example 43, N-(2-fluorobenzyl)-2-(2-tosylethylthio)nicotinamide] | 1.97 |
| Cc1ccc(S(=O)(=O)CCSc2ncccc2C(=O)NCc2cccc(C)c2)cc1 [Example 44, N-(3-methylbenzyl)-2-(2-tosylethylthio)nicotinamide] | 2.23 |
| Cc1ccc(S(=O)(=O)CCSc2ncccc2C(=O)NCc2ccc(F)c(F)c2)cc1 [Example 45, N-(3,4-difluorobenzyl)-2-(2-tosylethylthio)nicotinamide] | 2.14 |

| Structure (SMILES) | EC50 [µM] |
| --- | --- |
| Cc1ccc(S(=O)(=O)CCSc2ncccc2C(=O)NCc2ccc(F)cc2)cc1 [Example 49, N-(4-fluorobenzyl)-2-(2-tosylethylthio)nicotinamide] | 7.6 |
| Cc1ccc(S(=O)(=O)CCSc2ncccc2C(=O)NCc2cccc(Cl)c2)cc1 [Example 51, N-(3-chlorobenzyl)-2-(2-tosylethylthio)nicotinamide] | 4.12 |
| Cc1ccc(S(=O)(=O)CCSc2ncccc2C(=O)NCc2cccc(C(F)(F)F)c2)cc1 [Example 52, 2-(2-tosylethylthio)-N-(3-(trifluoromethyl)benzyl)nicotinamide] | 1.82 |
| O=C(NCc1ccccc1)c1cccnc1SCCS(=O)(=O)c1ccccc1 [Example 54, N-benzyl-2-(2-(phenylsulfonyl)ethylthio)nicotinamide] | 2.34 |
| CN(Cc1ccccc1)C(=O)c1cccnc1SCCS(=O)(=O)c1ccccc1 [Example 55, N-benzyl-N-methyl-2-(2-(phenylsulfonyl)ethylthio)nicotinamide] | 16.5 |
| CC(NC(=O)c1cccnc1SCCS(=O)(=O)c1ccccc1)c1cccc(C(F)(F)F)c1 (centres unmarked) [Example 57, 2-(2-(phenylsulfonyl)ethylthio)-N-(1-(3-(trifluoromethyl)phenyl)ethyl)-nicotinamide] | 5.7 |
| CC(C)(C)CNC(=O)c1cccnc1SCCS(=O)(=O)c1ccccc1 [Example 60, N-(neopentyl)-2-(2-(phenylsulfonyl)ethylthio)nicotinamide] | 9.59 |
| O=C(NCc1ccco1)c1cccnc1SCCS(=O)(=O)c1ccccc1 [Example 62, N-(furan-2-ylmethyl)-2-(2-(phenylsulfonyl)ethylthio)nicotinamide] | 4.39 |
| O=C(NCc1ccc(SC(F)(F)F)cc1)c1cccnc1SCCS(=O)(=O)c1ccccc1 [Example 64, 2-(2-(phenylsulfonyl)ethylthio)-N-(4-(trifluoromethylthio)benzyl)-nicotinamide] | 0.88 |
| O=C(NCc1cccs1)c1cccnc1SCCS(=O)(=O)c1ccc(Cl)cc1 [Example 99, 2-[2-(4-chlorophenyl)sulfonylethylthio]-N-(2-thienylmethyl)-nicotinamide] | 0.234 |
| O=C(NCc1cccs1)c1cccnc1SCCS(=O)(=O)c1ccc(F)cc1 [Example 100, 2-[2-(4-fluorophenyl)sulfonylethylthio]-N-(2-thienylmethyl)-nicotinamide] | 0.503 |
| O=C(NCc1cccs1)c1cccnc1SCCS(=O)(=O)c1ccc(C(F)(F)F)cc1 [Example 102, N-(2-thienylmethyl)-2-[2-[4-(trifluoromethyl)phenyl]sulfonylethylthio]-nicotinamide] | 0.197 |
| Cc1cccc(SCCSc2ncccc2C(=O)NCc2cccs2)c1 [Example 105, 2-[2-(m-tolylthio)ethylthio]-N-(2-thienylmethyl)-nicotinamide] | 0.168 |
| O=C(NCc1cccs1)c1cccnc1SCCS(=O)(=O)c1cccc(F)c1 [Example 106, 2-[2-(3-fluorophenyl)sulfonylethylthio]-N-(2-thienylmethyl)-nicotinamide] | 0.187 |
| CC(C)(C)CCNC(=O)c1cccnc1SCCS(=O)(=O)c1ccccc1 [Example 107, 2-[2-(benzenesulfonyl)ethylthio]-N-(3,3-dimethylbutyl)-nicotinamide] | 1.42 |
| O=C(NCc1cccs1)c1cccnc1SCCSc1ccccc1 [Example 109, 2-[2-(phenylthio)ethylthio]-N-(2-thienylmethyl)-nicotinamide] | 0.075 |
